Measured values reported in US20250144067A1, “PERSONALIZED STARVATION THERAPY FOR CANCER” (Faeth Therapeutics, Inc., priority 2021, published 2025).
Counter-ions that a name gives are not always drawn.

Assays:
[1] = system: NCI-H292 lung cancer cells; experiment: FDA drug screening, complete media vs cholesterol-free media without statin (TABLE 1); type: cell-based, human
[2] = system: NCI-H292 lung cancer cells; experiment: FDA drug screening, complete media vs cholesterol-free media with simvastatin (TABLE 2); type: cell-based, human; settings: for Cholesterol-free media + simvastatin (0.04 μM) / Complete Media: NCI-H292 cells
[3] = NCI-H292 cells, cholesterol-free media without statin
[4] = complete vs cholesterol-free media, greater than 0 enhanced anti-cancer activity, about 0 neutral, below 0 antagonists
[5] = NCI-H292 cells, cholesterol-free media without statin, FDA drug library screen
[6] = NCI-H292 cells, complete media, FDA drug library screen
[7] = FDA drug library screen, cholesterol-free media with simvastatin 0.04 μM
[8] = FDA drug library screen, complete media
[9] = complete media vs cholesterol-free media + simvastatin (0.04 μM), >0 enhanced anti-cancer activity, about 0 neutral, <0 antagonist
[10] = Complete minus Cholesterol-free, >0 enhanced anti-cancer activity, about 0 neutral, <0 antagonist
[11] = FDA library drug in cholesterol-free media with simvastatin 0.04 μM
[12] = FDA library drug in complete media
[13] = Complete minus Cholesterol-free, greater than 0 enhanced anti-cancer activity, about 0 neutral, below 0 antagonists
[14] = NCI-H292 cells in cholesterol-free media without statin
[15] = NCI-H292 cells in complete media
[16] = complete media minus cholesterol-free media + simvastatin, >0 enhanced anti-cancer activity, about 0 neutral, <0 antagonist
[17] = drug in cholesterol-free media with simvastatin 0.04 μM

Structure (SMILES): CN1c2c(nc(N)[nH]c2=O)NC[C@@H]1CNc1ccc(C(=O)N[C@@H](CCC(=O)O)C(=O)O)cc1 [Levomefolic acid]
- Cholesterol-free [1, 3]: 1.808
- Complete ([1]; NCI-H292 cells, complete media): 1.368
- Difference [1, 4]: −0.44
- Cholesterol-free media + simvastatin (0.04 μM) ([2]; cholesterol-free media with simvastatin 0.04 μM, FDA drug library screen (TABLE 2)): 0.9044
- Complete Media ([2]; complete media, FDA drug library screen (TABLE 2)): 0.8568
- Difference ([2]; complete media minus cholesterol-free media + simvastatin (0.04 μM), >0 enhanced anti-cancer activity, about 0 neutral, <0 antagonist): −0.05

Structure (SMILES): CCN(CC)C(=O)/C(C#N)=C/c1cc(O)c(O)c([N+](=O)[O-])c1 [Entacapone]
- Cholesterol-free [1, 5]: 0.7629
- Complete [1, 6]: 0.9193
- Difference ([1]; complete vs cholesterol-free media, >0 enhanced anti-cancer activity, about 0 neutral, <0 antagonist): 0.16
- Cholesterol-free media + simvastatin (0.04 μM) [2, 7]: 1.719
- Complete Media [2, 8]: 1.579
- Difference [2, 9]: −0.14

Structure (SMILES): N[C@@H](Cc1c[nH]c2ccc(O)cc12)C(=O)O [L-5-Hydroxytryptophan]
- Difference ([1]; Complete minus Cholesterol-free, greater than 0 enhanced anti-cancer activity, about 0 neutral, below 0 antagonist): −0.10
- Cholesterol-free ([1]; NCI-H292 cells, FDA drug library screen, cholesterol-free media without statin): 1.028
- Complete ([1]; NCI-H292 cells, FDA drug library screen, complete media): 0.9245
- Cholesterol-free media + simvastatin (0.04 μM) [2, 7]: 1.408
- Complete Media [2, 8]: 1.327
- Difference [2, 9]: −0.08

Structure (SMILES): Oc1cc(O)c(Cl)cn1 [Gimeracil]
- Difference [1, 10]: 0.07
- Cholesterol-free [1, 5]: 0.8525
- Complete [1, 6]: 0.9232
- Cholesterol-free media + simvastatin (0.04 μM) [2, 11]: 2.327
- Complete Media [2, 12]: 1.491
- Difference [2, 9]: −0.84

Structure (SMILES): O=C(OC[C@H]1O[C@@H](OC(=O)c2cc(O)c(O)c(OC(=O)c3cc(O)c(O)c(O)c3)c2)[C@H](OC(=O)c2cc(O)c(O)c(OC(=O)c3cc(O)c(O)c(O)c3)c2)[C@@H](OC(=O)c2cc(O)c(O)c(OC(=O)c3cc(O)c(O)c(O)c3)c2)[C@@H]1OC(=O)c1cc(O)c(O)c(OC(=O)c2cc(O)c(O)c(O)c2)c1)c1cc(O)c(O)c(OC(=O)c2cc(O)c(O)c(O)c2)c1 [Tannic acid]
- Difference [1, 13]: −0.60
- Cholesterol-free [1, 14]: 1.391
- Complete [1, 15]: 0.7941
- Cholesterol-free media + simvastatin (0.04 μM) [2, 7]: 1.824
- Complete Media [2, 8]: 2.065
- Difference [2, 16]: 0.24

Structure (SMILES): OC(CCN1CCCCC1)(c1ccccc1)C1CCCCC1 (stereo not shown) [Trihexyphenidyl (hydrochloride)]
- Cholesterol-free [1, 3]: 1.407
- Complete ([1]; NCI-H292 cells, complete media): 0.9676
- Difference [1, 4]: −0.44
- Cholesterol-free media + simvastatin (0.04 μM) [2, 17]: 0.9099
- Complete Media ([2]; drug in complete media): 0.6915
- Difference [2, 9]: −0.22

Structure (SMILES): C[C@@H]1C[C@H]2[C@@H]3CCC4=CC(=O)C=C[C@]4(C)[C@@]3(F)[C@@H](O)C[C@]2(C)[C@@]1(O)C(=O)CO [Dexamethasone]
- Difference [1, 10]: 0.07
- Cholesterol-free [1, 5]: 0.7411
- Complete [1, 6]: 0.8107
- Cholesterol-free media + simvastatin (0.04 μM) [2, 7]: 0.6107
- Complete Media [2, 8]: 0.7971
- Difference [2, 16]: 0.19

Structure (SMILES): C#C[C@]1(O)CC[C@H]2[C@@H]3CCc4cc(OC)ccc4[C@H]3CC[C@@]21C [Mestranol]
- Difference [1, 10]: −0.06
- Cholesterol-free [1, 5]: 0.9912
- Complete [1, 6]: 0.9277
- Cholesterol-free media + simvastatin (0.04 μM) [2, 11]: 1.197
- Complete Media [2, 12]: 0.9303
- Difference [2, 9]: −0.27

Structure (SMILES): CC(COc1ccccc1)NC(C)C(O)c1ccc(O)cc1 (stereo not shown) [Isoxsuprine hydrochloride]
- Cholesterol-free [1, 3]: 1.314
- Complete ([1]; NCI-H292 cells, complete media): 0.939
- Difference [1, 4]: −0.38
- Cholesterol-free media + simvastatin (0.04 μM) [2, 17]: 0.8873
- Complete Media ([2]; drug in complete media): 0.6774
- Difference [2, 9]: −0.21

Structure (SMILES): COc1cccc(-c2c(C)n(Cc3c(F)cccc3C(F)(F)F)c(=O)n(C[C@H](NCCCC(=O)O)c3ccccc3)c2=O)c1F [(R)-Elagolix]
- Difference [1, 13]: −0.49
- Cholesterol-free [1, 14]: 1.394
- Complete [1, 15]: 0.8996
- Cholesterol-free media + simvastatin (0.04 μM) [2, 7]: 1.16
- Complete Media [2, 8]: 1.077
- Difference [2, 9]: −0.08

Structure (SMILES): C[C@H](CCC(=O)NCCS(=O)(=O)O)[C@H]1CC[C@H]2[C@@H]3CC[C@@H]4C[C@H](O)CC[C@]4(C)[C@H]3C[C@H](O)[C@]12C [Taurodeoxycholic acid (sodium hydrate)]
- Difference [1, 10]: −0.23
- Cholesterol-free [1, 3]: 1.216
- Complete ([1]; NCI-H292 cells, complete media): 0.9829
- Difference [2, 9]: −0.45

Structure (SMILES): Cc1ccc(-c2cc(C(F)(F)F)nn2-c2ccc(S(N)(=O)=O)cc2)cc1 [Celecoxib]
- Cholesterol-free [1, 3]: 1.362
- Complete ([1]; NCI-H292 cells, complete media): 0.9472
- Difference [1, 4]: −0.42
- Cholesterol-free media + simvastatin (0.04 μM) ([2]; cholesterol-free media with simvastatin 0.04 μM, cell growth value in FDA drug screen): 1.271
- Complete Media ([2]; complete media, cell growth value in FDA drug screen): 1.302
- Difference [2, 16]: 0.03

Structure (SMILES): CCN(CC)CCOC(=O)C1(C2CCCCC2)CCCCC1 [Dicyclomine (hydrochloride)]
- Cholesterol-free [1, 3]: 1.211
- Complete ([1]; NCI-H292 cells, complete media): 0.8491
- Difference [1, 4]: −0.36
- Cholesterol-free media + simvastatin (0.04 μM) [2, 7]: 0.9961
- Complete Media [2, 8]: 0.9187
- Difference [2, 9]: −0.08

Structure (SMILES): C=C1CC[C@@H]2[C@](C)(CO)[C@H](O)CC[C@@]2(C)[C@@H]1/C=C/C1=CCOC1=O [Dehydroandrographolide]
- Difference ([1]; Complete minus Cholesterol-free, […]): −0.24
- Cholesterol-free [1, 3]: 0.9695
- Complete ([1]; NCI-H292 cells, complete media): 0.7339
- Cholesterol-free media + simvastatin (0.04 μM) [2, 11]: 1.79
- Complete Media [2, 12]: 1.432
- Difference ([2]; complete media vs cholesterol-free media + simvastatin (0.04 μM), […]): −0.36
